In patent US9205091B2, “Diazeniumdiolated compounds, pharmaceutical compositions, and method of treating cancer” (The United States of America, as represented by the …, priority 2009, dated 2015):

Legend:
H1703 cells [1] = assay: Intracellular ROS/RNS, CM-H2DCF-DA (DCF fluorescence); format: cell-based, human; details: up to 60 min
Protocol: Intracellular level of reactive oxygen/nitrogen species is quantified by the oxidation of the ROS/RNS-sensitive fluorophore 5-(and-6)-chloromethyl-2′,7′-dichlorodihydrofluorescein diacetate (CM-H2DCF-DA) (Invitrogen, Carlsbad, Calif.). Cells growing on 6-well plates (6×10^5/well) are loaded with 5 μM CM-H2DCF-DA in Hanks' balanced salt solution (HBSS) at 37° C. and 5% CO2. After 30 min of incubation, HBSS containing the probe is removed, cells are rinsed with HBSS and 3 mL of fresh HBSS is added to each well followed by addition of JS-K or DMSO as a control. After 30 min or 60 min the cells are collected by scraping in HBSS and 2′,7′-dichlorofluorescein (DCF) fluorescence is measured using a Perkin Elmer LS50B luminescence spectrometer with the excitation source at 488 nm and emission at 530 nm.

H1944 cells [2] = assay: H1944 xenograft in athymic NCr-nu/nu mice, JS-K (Example 3); format: in vivo; details: 6 μmol/kg i.v., three times a week for three weeks
Protocol: (§1) H1944 or H1703 cells are injected at 5×10^6 s.c. into a flank of 7-week-old female athymic NCr-nu/nu mice (Charles River, Wilmington, Mass.). The drug injections are initiated when the tumors reached 2×2×2 mm (typically 3-4 weeks). JS-K is formulated in Pluronic P123 (P123) (BASF, Florham Park, N.J.) micelles. Animals are treated three times a week for three weeks with i.v. tail vein injections of either vehicle (2.25% P123 in PBS) or JS-K (6 μmol/kg in the vehicle). Tumors are measured using a caliper twice a week, and the tumor volumes are calculated using a formula for ellipsoid volume, π/6×L×W×H (Tomayko and Reynolds, 1989). The non-parametric Mann-Whitney test is utilized for statistical comparisons of tumor volumes at each time point. Body weights are taken before each drug injection. Animals are sacrificed 2 h after the last drug injection. Blood is collected by cardiac puncture under isoflurane anesthesia, for testing for cytokines. Cytokines in serum are measured using a mouse Th1/2 multiplex assay (Meso Scale Discovery, Gaithersburg, Md.), according to the manufacturer's protocol. There were 9-13 mice/group at termination.

H1703 cells [3] = assay: H1703 xenograft in athymic NCr-nu/nu mice, tumor weights (Example 10); format: in vivo; details: 6 micromols/kg i.v., three times a week for three weeks
Protocol: H1703 cells are harvested at 80% confluence, washed with PBS, and suspended in PBS. The cells are injected at 5×10^6 s.c. into a flank of 7-week-old female athymic NCr-nu/nu mice (Charles River). […] Animals are treated three times a week for three weeks with i.v. tail vein injections of either vehicle (2.25% P-123 in PBS) or 1 or 2 (6 micromols/kg in the vehicle) or 6 (8 micromols/kg). Body weights are taken before each drug injection. Animals are sacrificed two hours after the last drug injection and the tumors are excised and weighed. There are 13-15 mice/group at termination. The non-parametric Mann-Whitney test is utilized for statistical comparisons of tumor weights.

H1944 = assay: CellTiter 96 MTT cell proliferation assay (Example 9); format: cell-based, human
Protocol: (§2) Cell lines derived from human non-small cell lung cancers are obtained from American Type Culture Collection (ATCC, Manassas, Va.), and are designated by their NCI numbers. Cells are maintained in RPMI 1640 medium (Gibco, Invitrogen, Carlsbad, Calif.), supplemented with 10% fetal calf serum (Gemini Bio-Products, Sacramento, Calif.), 100 U/mL penicillin/streptomycin, and 2 mM glutamine at 37° C. and 5% CO2.
(§3) For proliferation assays cells are seeded at 2×10^4/well in 96-well plates, allowed to adhere for 24 hrs, and then are treated with the drug or DMSO as a control for 48 hours. […] Compounds are prepared as 10 mM stock solution in dimethyl sulfoxide (Sigma, St. Louis, Mo.). Increasing drug concentrations in 10 μL of phosphate-buffered saline (PBS) are added to 100 μL of the culture medium and incubated at 37° C. for 72 h. The CellTiter 96 non-radioactive cell proliferation assay (MTT assay, Promega, Madison, Wis.), is performed according to the manufacturer's protocol. Each compound concentration is represented in six repeats, and the screening is performed as at least two independent experiments. IC50 values are calculated using Sigma Plot software (Systat Software).

H2122 = assay: as above; format: cell-based, human
Protocol: as §2, §3

H1703 = assay: as above; format: cell-based, human
Protocol: as §2, §3

H1373 = assay: as above; format: cell-based, human
Protocol: as §2, §3

H441 = assay: as above; format: cell-based, human
Protocol: as §2, §3

MnSOD = assay: Anti-nitrotyrosine immunoprecipitation, anti-MnSOD immunoblot; format: cell-based, human; details: H1703 cells, 1 h
Protocol: For immunoprecipitation, 300 μg of the cell lysate is incubated on the rotator overnight at 4° C. with 2 μg of anti-nitrotyrosine mAb and 30 μL of protein G agarose. After washing three times with lysis buffer, the beads are suspended in 30 μL of 2×NuPAGE (Invitrogen, Carlsbad, Calif.) loading buffer and heated for 10 min at 95° C. Immunoprecipitated material is resolved on SDS-PAGE followed by immunoblotting with anti-MnSOD antibody.
Western blot analysis is performed as previously described (Romanowska et al., Free Radical Biol. Med., 43:1145-1155 (2007)). Primary antibodies for caspases 3, 7, PARP and cleaved PARP, Bax, cytochrome c (Cell Signaling Technology, Danvers, Mass.), peroxiredoxins 1-6 (LabFrontier, Seoul, Korea), and nitrotyrosine and MnSOD (Millipore, Billerica, Mass.) are used.

H1944 cells [4] = assay: Intracellular nitric oxide, DAF-FM diacetate; format: cell-based, human; details: 1 μM, up to 60 min
Protocol: (§4) Cells growing on 6-well plates are loaded with 2.5 μM DAF-FM diacetate in HBSS at 37° C. and 5% CO2. After 30 min of incubation the cells are rinsed with HBSS to remove excess probe, and JS-K in fresh HBSS is added to the cells at 1 μM final concentration. After 30 or 60 min incubation the fluorescence of the benzotriazole derivative formed on DAF-FM's reaction with aerobic NO is analyzed using a Perkin Elmer LS50B luminescence spectrometer with the excitation source at 495 nm and emission at 515 nm. All experiments are performed at least three times, each time in triplicate.

H1703 cells [5] = assay: Intracellular nitric oxide, DAF-FM diacetate; format: cell-based, human; details: 1 μM, up to 60 min
Protocol: as §4

[6] = test system: IL-1β, IL-2, IL-4, IL-5, IL-10, IL-12t, IFNγ or TNFα; assay: Serum cytokines, mouse Th1/2 multiplex assay; format: in vivo, mice; details: serum at termination; 6 μmol/kg i.v., three times a week for three weeks
Protocol: as §1

## CCOC(=O)N1CCN(/[N+]([O-])=N/Oc2ccc([N+](=O)[O-])cc2[N+](=O)[O-])CC1 [Compound 1]
H1703 cells [1]
  DCF-reactive material: increase
H1944 cells [2]
  growth of xenografted tumor cells vs vehicle: significantly reduces growth
H1703 cells [3]
  growth of H1703 human NSCLC cells in vivo vs vehicle: significantly reduced growth
H1703 cells [3]; vs vehicle
  reduction of the tumor weights: 49%
H1944
  IC50: > 10 µM
H2122
  IC50: 3.17 µM
H1703
  IC50: 0.57 µM
H1373
  IC50: 0.86 µM
H441
  IC50: 0.94 µM
MnSOD
  nitrotyrosine level in MnSOD: increase
H1944 cells [4]
  intracellular NO: increase
H1703 cells [5]
  intracellular NO: increase
[6]
  serum cytokine levels, treated vs control groups: no significant differences
